Laboratory results reported in patent US8710089B2, “Triazole derivatives as ghrelin analogue ligands of growth hormone secretagogue receptors” (Zentaris GmbH, priority 2005, dated 2014).

How the values were obtained:
[1] = system: young-adult male Sprague-Dawley rats; assay: Feeding behavior (food intake) of young-adult male rats; format: in vivo, rat (Sprague-Dawley)
Protocol: V) Assaying the Feeding Behavior (Food Intake) of Young-Adult Male Rats
The impact of compounds of the invention being GHS receptor analogue ligands on the feeding behaviour, i.e. food intake, of young-adult male rats was assayed.
In principle, assaying the feeding behavior (food intake) of young-adult male rats was performed according to Torsello et al. (Eur. J. Pharmacol. 1998, 360: 123-129).
For the assay, young-adult male Sprague-Dawley rats (Charles River, Calco, Italy), weighing 200-250 g, were used.
Rats had 1 week of acclimation in individual home cages, and animal room conditions (22±2° C., 65% humidity, artificial light from 08.00 to 20.00 h). The following week, they were daily trained to mimic the experimental procedure. Rats maintained free access to dry pellets and tap water throughout the whole experimental period. At the end of training, rats were administered (around 10.00-11.00 a.m.) subcutaneously with the compounds to be tested (160 μg/kg body weight) and/or hexarelin (80 μg/kg body weight) and/or solvent [DMSO (0.4% of total volume), distilled water (4% of total volume), brought to the final volume with physiological saline].
Hexarelin was used to study the effects of the compounds to be tested on stimulated feeding behavior. Immediately after the injections, the animals were returned to their home cages, which contained a known amount of standard rat chow and ad libitum water. Every hour for the following 6 hours, the remaining food was carefully collected and weighed to the nearest 0.1 g. Food intake was normalized for the body weight of the rats and expressed as grams of food eaten per 100 g body weight of rats.
In the following table 4 results obtained for selected compounds of the invention are presented.

[2] = target: T1, human GHS-R 1a (Homo sapiens, UniProt Q92847); assay: GHS-R 1a receptor-ligand binding assay (membrane preparations from transfected LLC PK-1 cells); conditions: displacement of 125I-His9-ghrelin (60 pM); membranes of LLC PK-1 cells transfected with human GHS-R 1a; mean of at least two independent experiments in triplicates
T1 construct: expressed in transfected cells; host or cells: LLC PK-1 porcine renal epithelial cells (ECACC No. 86121112), isolated plasma membranes
T1 sequence (Q92847 whole entry): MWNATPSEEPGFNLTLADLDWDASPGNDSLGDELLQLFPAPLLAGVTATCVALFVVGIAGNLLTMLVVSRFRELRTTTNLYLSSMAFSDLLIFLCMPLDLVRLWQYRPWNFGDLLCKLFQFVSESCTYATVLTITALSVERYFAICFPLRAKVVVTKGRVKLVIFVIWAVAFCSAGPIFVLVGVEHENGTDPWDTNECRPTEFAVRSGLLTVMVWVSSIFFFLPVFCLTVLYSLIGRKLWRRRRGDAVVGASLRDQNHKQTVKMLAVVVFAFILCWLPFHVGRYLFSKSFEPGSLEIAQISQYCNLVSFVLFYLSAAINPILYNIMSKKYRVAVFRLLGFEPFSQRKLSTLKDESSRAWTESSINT
Summary of the method: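 Membranes from LLC PK-1 cells expressing human GHS-R 1a incubated 60 min at 25 °C in 50 mM Tris pH 7.3, 5 mM MgCl2, 2.5 mM EDTA, bacitracin with 60 pM 125I-ghrelin and competitor; nonspecific binding with 10^-6 M ghrelin; filtration read-out.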

[3] = compound 160 μg/kg s.c. + hexarelin 80 μg/kg s.c.
[4] = compound alone, 160 μg/kg body weight s.c.

| Structure (SMILES) | IC50 [2] | Cumulative food intake (after 2 hours) [1, 3] | Cumulative food intake (after 6 hours) [1, 3] | Cumulative food intake (after 2 hours) [1, 4] | Cumulative food intake (after 6 hours) [1, 4] |
| --- | --- | --- | --- | --- | --- |
| CC(C)(N)C(=O)N[C@H](Cc1c[nH]c2ccccc12)c1nnc(CCc2c[nH]c3ccccc23)n1CCc1c[nH]c2ccccc12 [compound 17, (R)—N-(1-(4,5-bis(2-(1H-indol-3-yl)ethyl)-4H-1,2,4-triazol-3-yl)-2-(1H-indol-3-yl)ethyl)-2-amino-2-methylpropanamide] | 156 nM | 0.0501 ± 0.049 g food/100 g body weight | 0.846 ± 0.411 g food/100 g body weight | 0.001 ± 0.001 g food/100 g body weight | 0.2661 ± 0.166 g food/100 g body weight |
| CC(C)(N)C(=O)N[C@H](Cc1c[nH]c2ccccc12)c1nnc(Cc2ccccc2)n1Cc1ccc(F)cc1 [compound 30, (R)—N-(1-(4-(4-fluorobenzyl)-5-benzyl-4H-1,2,4-triazol-3-yl)-2-(1H-indol-3-yl)ethyl)-2-amino-2-methylpropanamide] | 171 nM | 1.350 ± 0.177 g food/100 g body weight | 1.449 ± 0.213 g food/100 g body weight | 0.264 ± 0.244 g food/100 g body weight | 0.277 ± 0.246 g food/100 g body weight |
| COc1ccc(Cn2c(Cc3ccccc3)nnc2[C@@H](Cc2c[nH]c3ccccc23)NC(=O)C(C)(C)N)cc1 [compound 13, (R)—N-(1-(4-(4-methoxybenzyl)-5-benzyl-4H-1,2,4-triazol-3-yl)-2-(1H-indol-3-yl)ethyl)-2-amino-2-methylpropanamide] | 138 nM | 0.731 ± 0.318 g food/100 g body weight | 0.792 ± 0.337 g food/100 g body weight | 0.057 ± 0.057 g food/100 g body weight | 0.167 ± 0.167 g food/100 g body weight |
| COc1ccc(Cn2c(CCc3ccccc3)nnc2[C@@H](Cc2c[nH]c3ccccc23)NC(=O)[C@H]2CCCCN2)cc1 [compound 49, (R)—N—((R)-1-(4-(4-methoxybenzyl)-5-phenethyl-4H-1,2,4-triazol-3-yl)-2-(1H-indol-3-yl)ethyl)piperidine-2-carboxamide] | – | 0.057 ± 0.037 g food/100 g body weight | 0.558 ± 0.212 g food/100 g body weight | 0.004 ± 0.004 g food/100 g body weight | 0.004 ± 0.004 g food/100 g body weight |

More lines, main results first:

| IC50 [2] | Structure (SMILES) | Cumulative food intake (after 2 hours) [1, 3] | Cumulative food intake (after 6 hours) [1, 3] | Cumulative food intake (after 2 hours) [1, 4] | Cumulative food intake (after 6 hours) [1, 4] |
| --- | --- | --- | --- | --- | --- |
| 112 nM | COc1ccc(Cn2c(CCc3c[nH]c4ccccc34)nnc2[C@@H](Cc2c[nH]c3ccccc23)NC(=O)c2ccccc2N)c(OC)c1 [compound 38, (R)—N-(1-(5-(2-(1H-indol-3-yl)ethyl)-4-(2,4-dimethoxybenzyl)-4H-1,2,4-triazol-3-yl)-2-(1H-indol-3-yl)ethyl)-2-aminobenzamide] | 0.002 ± 0.002 g food/100 g body weight | 0.478 ± 0.141 g food/100 g body weight | 0.001 ± 0 g food/100 g body weight | 0.076 ± 0.096 g food/100 g body weight |
| 1.9 nM | COc1ccc(Cn2c(CCc3c[nH]c4ccccc34)nnc2[C@@H](Cc2c[nH]c3ccccc23)NC(=O)c2ccccn2)cc1 [compound 80, (R)—N-(1-(5-(2-(1H-indol-3-yl)ethyl)-4-(4-methoxybenzyl)-4H-1,2,4-triazol-3-yl)-2-(1H-indol-3-yl)ethyl)picolinamide] | 0.475 ± 0.196 g food/100 g body weight | 0.733 ± 0.238 g food/100 g body weight | 0.145 ± 0.143 g food/100 g body weight | 0.346 ± 0.159 g food/100 g body weight |
